According to PubChem BioAssay AID330 (DTP/NCI, 2004):
“And” between values parts separate entries of the source, which are not always exact repeats. Equal values may be shown once. Toxic doses and inconclusive results are not listed.

Test system: P388 leukemia ip, CD2F1 mice, survival T/C
Experiment: NCI In Vivo Anticancer Drug Screen. Data for tumor model P388 Leukemia (intraperitoneal) in CD2F1 (CDF1) mice
Conditions: endpoint: median survival time, higher = longer survival
Method in brief: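 Mice carrying the transplanted tumor received test compound or vehicle. Survival was recorded in each group, and the value is the treated-group measurement divided by that of the vehicle-treated control group.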

[1] = dose: 50.0 mg/kg/injection, schedule: Q01DX005 (ip), vehicle: saline with Tween-80
[2] = dose: 100.0 mg/kg/injection, schedule: Q01DX005 (ip), vehicle: saline with Tween-80
[3] = dose: 200.0 mg/kg/injection, schedule: Q01DX005 (ip), vehicle: saline with Tween-80
[4] = dose: 100.0 mg/kg/injection, schedule: Q01DX009 (ip), vehicle: saline with Tween-80
[5] = dose: 200.0 mg/kg/injection, schedule: Q01DX009 (ip), vehicle: saline with Tween-80
[6] = dose: 400.0 mg/kg/injection, schedule: Q04DX003 (ip), vehicle: saline with Tween-80
[7] = dose: 12.5 mg/kg/injection, schedule: Q01DX005 (ip), vehicle: saline with Tween-80
[8] = dose: 25.0 mg/kg/injection, schedule: Q01DX005 (ip), vehicle: saline with Tween-80

SMILES: COc1c(OC2OC(CO)C(O)C(O)C2O)cc2occ(-c3ccc4c(c3)OCO4)c(=O)c2c1O (configuration not stated)
- T/C (dose: 4.0 mg/kg/injection, schedule: Q01DX005 (ip), vehicle: saline with Tween-80): 94 % of control
- T/C (dose: 8.0 mg/kg/injection, schedule: Q01DX005 (ip), vehicle: saline with Tween-80): 101 % of control
- T/C (dose: 16.0 mg/kg/injection, schedule: Q01DX005 (ip), vehicle: saline with Tween-80): 101 % of control
- T/C (dose: 32.0 mg/kg/injection, schedule: Q01DX005 (ip), vehicle: saline with Tween-80): 95 % of control

SMILES: Nc1nnc2nc(C(C(=O)c3ccccc3Cl)c3nc4nnc(N)n4[nH]c3=O)c(=O)[nH]n12
- T/C (dose: 60.0 mg/kg/injection, schedule: Q01DX005 (ip), vehicle: saline with Tween-80): 101 % of control
- T/C (dose: 120.0 mg/kg/injection, schedule: Q01DX005 (ip), vehicle: saline with Tween-80): 98 % of control
- T/C (dose: 240.0 mg/kg/injection, schedule: Q01DX005 (ip), vehicle: saline with Tween-80): 99 % of control

SMILES: O=C(O)c1cccc(/C=C/c2ccccc2)c1
- T/C [1]: 107 % of control
- T/C [2]: 105 % of control
- T/C [3]: 114 % of control

SMILES: COc1c(C(C)C)ccc2c1CCC1C3=C(CCC21C)C(=O)OC3 (configuration not stated)
- T/C (dose: 6.25 mg/kg/injection, schedule: Q01DX009 (ip), vehicle: DMSO): 109 % of control
- T/C (dose: 12.5 mg/kg/injection, schedule: Q01DX009 (ip), vehicle: DMSO): 100 % of control
- T/C (dose: 25.0 mg/kg/injection, schedule: Q01DX009 (ip), vehicle: DMSO): 106 % of control

SMILES: COc1c(O)cc2c(c1O)C1OC(CO)C(O)C(O)C1OC2=O (configuration not stated)
- T/C (dose: 12.75 mg/kg/injection, schedule: Q01DX005 (ip), vehicle: Klucel (hydroxypropylcellulose) (HPC)): 100 % of control
- T/C (dose: 25.5 mg/kg/injection, schedule: Q01DX005 (ip), vehicle: Klucel (hydroxypropylcellulose) (HPC)): 98 % of control
- T/C (dose: 51.0 mg/kg/injection, schedule: Q01DX005 (ip), vehicle: Klucel (hydroxypropylcellulose) (HPC)): 97 % of control
- T/C (dose: 102.0 mg/kg/injection, schedule: Q01DX005 (ip), vehicle: Klucel (hydroxypropylcellulose) (HPC)): 100 % of control

SMILES: CC1=CC(=O)C(O)C2(C)C1CC1OC(=O)C(OC(=O)c3ccccc3)C3(O)C4(C)OCC13C2C(O)C4O (configuration not stated)
- T/C (dose: 0.75 mg/kg/injection, schedule: Q01DX005 (ip), vehicle: saline + alcohol): 101 % of control
- T/C (dose: 1.5 mg/kg/injection, schedule: Q01DX005 (ip), vehicle: saline + alcohol): 101 % of control
- T/C (dose: 3.0 mg/kg/injection, schedule: Q01DX005 (ip), vehicle: saline + alcohol): 108 % of control
- T/C (dose: 6.0 mg/kg/injection, schedule: Q01DX005 (ip), vehicle: saline + alcohol): 105 % of control

SMILES: O=C(O)Cc1sc(-c2ccccc2)nc1-c1ccc(Cl)cc1
- T/C (dose: 50.0 mg/kg/injection, schedule: Q01DX009 (ip), vehicle: saline with Tween-80): 114 % of control
- T/C [4]: 110 % of control
- T/C [5]: 112 % of control

SMILES: COc1cccc2c1C(=O)c1c(O)c3c(c(O)c1C2=O)C[C@@](O)(C(=O)CO)C[C@@H]3OC1CC([N+](C)(C)C)C(O)C(C)O1 (some centres not stated)
- T/C (dose: 3.89 mg/kg/injection, schedule: Q04DX003 (ip), vehicle: water): 105 % of control
- T/C (dose: 6.48 mg/kg/injection, schedule: Q04DX003 (ip), vehicle: water): 109 % of control
- T/C (dose: 12.5 mg/kg/injection, schedule: Q01DX001 (ip), vehicle: water): 112 % of control
- T/C (dose: 12.5 mg/kg/injection, schedule: Q01DX009 (ip), vehicle: water): 160 % of control and 187 % of control
- T/C (dose: 30.0 mg/kg/injection, schedule: Q04DX003 (ip), vehicle: water): 150 % of control

SMILES: NCC(=O)Nc1ccc(O)cc1
- T/C (dose: 100.0 mg/kg/injection, schedule: Q01DX009 (ip), vehicle: saline sonified): 104 % of control
- T/C (dose: 100.0 mg/kg/injection, schedule: Q04DX003 (ip), vehicle: saline sonified): 110 % of control
- T/C (dose: 200.0 mg/kg/injection, schedule: Q04DX003 (ip), vehicle: saline sonified): 110 % of control
- T/C (dose: 264.0 mg/kg/injection, schedule: Q04DX003 (ip), vehicle: saline with Tween-80): 109 % of control
- T/C [6]: 109 % of control
- T/C (dose: 600.0 mg/kg/injection, schedule: Q04DX003 (ip), vehicle: saline with Tween-80): 109 % of control

SMILES: C[C@@H]1C[C@](O)([C@@H](C)Cl)C(=O)O[C@@H]2CCN3CC=C(COC(=O)[C@]1(C)O)[C@H]23
- T/C (dose: 2.75 mg/kg/injection, schedule: Q01DX009 (ip), vehicle: saline): 104 % of control
- T/C (dose: 3.75 mg/kg/injection, schedule: Q01DX009 (ip), vehicle: saline): 103 % of control
- T/C (dose: 5.5 mg/kg/injection, schedule: Q01DX009 (ip), vehicle: saline): 104 % of control
- T/C (dose: 7.5 mg/kg/injection, schedule: Q01DX009 (ip), vehicle: saline): 106 % of control
- T/C (dose: 11.0 mg/kg/injection, schedule: Q01DX009 (ip), vehicle: saline): 113 % of control
- T/C (dose: 15.0 mg/kg/injection, schedule: Q01DX009 (ip), vehicle: saline): 95 % of control
- T/C (dose: 22.0 mg/kg/injection, schedule: Q01DX009 (ip), vehicle: saline): 104 % of control
- T/C (dose: 30.0 mg/kg/injection, schedule: Q01DX009 (ip), vehicle: saline): 106 % of control

SMILES: CC[N+](C)(CC)CCSC1=Nc2ccccc2N=C(c2ccc(Sc3ccccc3)cc2)C1
- T/C (dose: 1.56 mg/kg/injection, schedule: Q01DX009 (ip), vehicle: Klucel (hydroxypropylcellulose) (HPC)): 117 % of control
- T/C (dose: 3.12 mg/kg/injection, schedule: Q01DX009 (ip), vehicle: Klucel (hydroxypropylcellulose) (HPC)): 99 % of control
- T/C (dose: 6.25 mg/kg/injection, schedule: Q01DX009 (ip), vehicle: Klucel (hydroxypropylcellulose) (HPC)): 106 % of control and 108 % of control

SMILES: O=C(O)CC(CSCP(=O)(O)O)C(=O)O (configuration not stated)
- T/C (dose: 50.0 mg/kg/injection, schedule: Q01DX005 (ip), vehicle: suspension in saline): 102 % of control
- T/C (dose: 100.0 mg/kg/injection, schedule: Q01DX005 (ip), vehicle: suspension in saline): 91 % of control
- T/C (dose: 200.0 mg/kg/injection, schedule: Q01DX005 (ip), vehicle: suspension in saline): 89 % of control

SMILES: CC12OC(c3ccccc3)C(C)(OC1c1ccccc1)O2 (configuration not stated)
- T/C (dose: 60.0 mg/kg/injection, schedule: Q01DX005 (ip), vehicle: Klucel (hydroxypropylcellulose) (HPC)): 102 % of control
- T/C (dose: 120.0 mg/kg/injection, schedule: Q01DX005 (ip), vehicle: Klucel (hydroxypropylcellulose) (HPC)): 100 % of control
- T/C (dose: 240.0 mg/kg/injection, schedule: Q01DX005 (ip), vehicle: Klucel (hydroxypropylcellulose) (HPC)): 98 % of control

SMILES: O=C(NCC(O)CNC(=O)Nc1ccc(C2=NCC(O)CN2)cc1)Nc1ccc(C2=NCC(O)CN2)cc1 (configuration not stated)
- T/C [7]: 95 % of control
- T/C [8]: 100 % of control
- T/C [1]: 109 % of control and 97 % of control

SMILES: CC(C)(C)C1=CP(=O)(c2ccccc2)C=C(C(C)(C)C)N1
- T/C [1]: 106 % of control
- T/C [2]: 108 % of control
- T/C [3]: 98 % of control

SMILES: CN(C)CCCN1c2ccccc2Sc2ccccc21
- T/C (dose: 18.75 mg/kg/injection, schedule: Q01DX009 (ip), vehicle: saline with Tween-80): 111 % of control
- T/C (dose: 18.75 mg/kg/injection, schedule: Q01DX009 (ip), vehicle: saline): 112 % of control
- T/C (dose: 37.5 mg/kg/injection, schedule: Q01DX009 (ip), vehicle: saline with Tween-80): 123 % of control
- T/C (dose: 37.5 mg/kg/injection, schedule: Q01DX009 (ip), vehicle: saline): 109 % of control

SMILES: CC(O)c1cc(=O)[nH][nH]1 (configuration not stated)
- T/C (dose: 50.0 mg/kg/injection, schedule: Q01DX005 (ip), vehicle: saline): 105 % of control
- T/C (dose: 100.0 mg/kg/injection, schedule: Q01DX005 (ip), vehicle: saline): 99 % of control
- T/C (dose: 200.0 mg/kg/injection, schedule: Q01DX005 (ip), vehicle: saline): 110 % of control

SMILES: Nc1nc(Br)c2[nH]cnc2n1
- T/C [4]: 110 % of control
- T/C (dose: 100.0 mg/kg/injection, schedule: Q04DX003 (ip), vehicle: saline with Tween-80): 118 % of control
- T/C [5]: 120 % of control
- T/C (dose: 200.0 mg/kg/injection, schedule: Q04DX003 (ip), vehicle: saline with Tween-80): 113 % of control
- T/C (dose: 400.0 mg/kg/injection, schedule: Q01DX009 (ip), vehicle: saline with Tween-80): 90 % of control
- T/C [6]: 109 % of control

SMILES: C1=C(c2ccccc2)CC2CCC1N2Cc1ccccc1 (configuration not stated)
- T/C [7]: 99 % of control
- T/C [8]: 103 % of control
- T/C [1]: 101 % of control and 103 % of control

SMILES: CC1CCC2(OC1)OC1CC3C4CCC5CC(O)CCC5(C)C4CCC3(C)C1C2C (configuration not stated)
- T/C (dose: 10.0 mg/kg/injection, schedule: Q01DX009 (ip), vehicle: Klucel (hydroxypropylcellulose) (HPC)): 108 % of control
- T/C (dose: 20.0 mg/kg/injection, schedule: Q01DX009 (ip), vehicle: Klucel (hydroxypropylcellulose) (HPC)): 117 % of control
- T/C (dose: 40.0 mg/kg/injection, schedule: Q01DX009 (ip), vehicle: Klucel (hydroxypropylcellulose) (HPC)): 119 % of control
